Measurements reported in patent US11168073B2, “3,3-difluoroallylamines or salts thereof and pharmaceutical compositions comprising the same” (YUHAN CORPORATION, priority 2018, dated 2021).
Where a name gives a salt, the structure may show the parent alone. Read-outs that look alike come from different tables or passages of the source.

Legend:
Format in all cases: biochemical
[1] = target: T1, recombinant human DAO (diamine oxidase) (Homo sapiens, UniProt P19801); experiment: Activity evaluation on recombinant human DAO (Amplex Red/HRP-coupled assay, 1 mM putrescine substrate); settings: read-out: Inhibitory Activity (IC50, nM) DAO
T1 construct: purchased R&D systems
T1 sequence (P19801 20-751): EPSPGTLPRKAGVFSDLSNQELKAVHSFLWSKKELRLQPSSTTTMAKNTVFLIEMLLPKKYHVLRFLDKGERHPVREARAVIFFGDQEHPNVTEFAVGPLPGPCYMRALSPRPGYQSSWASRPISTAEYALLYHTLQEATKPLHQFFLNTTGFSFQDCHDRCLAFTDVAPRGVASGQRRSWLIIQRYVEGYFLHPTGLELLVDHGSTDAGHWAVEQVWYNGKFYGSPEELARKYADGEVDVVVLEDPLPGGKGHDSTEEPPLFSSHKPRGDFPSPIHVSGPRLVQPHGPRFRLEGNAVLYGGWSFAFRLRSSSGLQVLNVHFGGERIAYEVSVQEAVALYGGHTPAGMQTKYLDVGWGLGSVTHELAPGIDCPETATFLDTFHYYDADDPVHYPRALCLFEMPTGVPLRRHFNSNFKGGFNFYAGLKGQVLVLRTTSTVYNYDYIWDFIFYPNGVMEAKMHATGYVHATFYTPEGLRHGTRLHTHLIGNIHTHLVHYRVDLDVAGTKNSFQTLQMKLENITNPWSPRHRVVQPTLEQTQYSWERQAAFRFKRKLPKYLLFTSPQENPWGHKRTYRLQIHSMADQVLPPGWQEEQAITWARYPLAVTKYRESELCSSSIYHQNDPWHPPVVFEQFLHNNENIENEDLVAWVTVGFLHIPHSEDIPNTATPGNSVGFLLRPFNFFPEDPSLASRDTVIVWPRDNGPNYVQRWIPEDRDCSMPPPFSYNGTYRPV
Outline: (§1)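 Compounds preincubated 30 min at 37 °C with enzyme in 50 mM sodium phosphate pH 7.4 (final DMSO <1%, 8-point 1:3 dilutions); reaction started with 200 uM Amplex Red, 1 U/mL HRP and substrate (MAO-A 0.5 mM tyramine, MAO-B 1 mM benzylamine, DAO 1 mM putrescine). Resorufin fluorescence (ex 544/em 590 nm) followed over 1-2 h; IC50 from four-parameter logistic fit.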

[2] = target: T2, recombinant human MAO-B (monoamine oxidase-B) (Homo sapiens, UniProt P27338); experiment: Activity evaluation on recombinant human MAO-B (Amplex Red/HRP-coupled assay, 1 mM benzylamine substrate); settings: read-out: Inhibitory Activity (IC50, nM) MAO-B
T2 construct: purchased Sigma-Aldrich
T2 sequence (P27338 1-520): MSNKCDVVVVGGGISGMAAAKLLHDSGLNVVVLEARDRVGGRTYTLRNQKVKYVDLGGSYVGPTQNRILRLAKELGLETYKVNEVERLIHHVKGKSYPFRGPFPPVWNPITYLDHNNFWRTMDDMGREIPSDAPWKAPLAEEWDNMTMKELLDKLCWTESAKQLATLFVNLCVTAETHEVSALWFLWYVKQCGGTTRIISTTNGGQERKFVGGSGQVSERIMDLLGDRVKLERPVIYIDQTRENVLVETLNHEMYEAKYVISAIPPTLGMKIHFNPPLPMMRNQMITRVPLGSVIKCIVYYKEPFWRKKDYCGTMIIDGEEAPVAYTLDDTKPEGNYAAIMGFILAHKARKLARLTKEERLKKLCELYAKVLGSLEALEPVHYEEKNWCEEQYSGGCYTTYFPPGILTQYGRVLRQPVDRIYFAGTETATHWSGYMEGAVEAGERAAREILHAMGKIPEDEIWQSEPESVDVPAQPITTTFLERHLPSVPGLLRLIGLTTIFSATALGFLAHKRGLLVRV
Outline: as §1

recombinant human VAP-1 = target: T3, recombinant human VAP-1 (Homo sapiens, UniProt Q16853); experiment: Activity evaluation on recombinant human VAP-1 (Amplex Red/HRP-coupled hydrogen peroxide assay, benzylamine substrate); settings: read-out: Inhibitory Activity (IC50, nM) human VAP-1
T3 construct: purchased R&D systems
T3 sequence (Q16853 1-763): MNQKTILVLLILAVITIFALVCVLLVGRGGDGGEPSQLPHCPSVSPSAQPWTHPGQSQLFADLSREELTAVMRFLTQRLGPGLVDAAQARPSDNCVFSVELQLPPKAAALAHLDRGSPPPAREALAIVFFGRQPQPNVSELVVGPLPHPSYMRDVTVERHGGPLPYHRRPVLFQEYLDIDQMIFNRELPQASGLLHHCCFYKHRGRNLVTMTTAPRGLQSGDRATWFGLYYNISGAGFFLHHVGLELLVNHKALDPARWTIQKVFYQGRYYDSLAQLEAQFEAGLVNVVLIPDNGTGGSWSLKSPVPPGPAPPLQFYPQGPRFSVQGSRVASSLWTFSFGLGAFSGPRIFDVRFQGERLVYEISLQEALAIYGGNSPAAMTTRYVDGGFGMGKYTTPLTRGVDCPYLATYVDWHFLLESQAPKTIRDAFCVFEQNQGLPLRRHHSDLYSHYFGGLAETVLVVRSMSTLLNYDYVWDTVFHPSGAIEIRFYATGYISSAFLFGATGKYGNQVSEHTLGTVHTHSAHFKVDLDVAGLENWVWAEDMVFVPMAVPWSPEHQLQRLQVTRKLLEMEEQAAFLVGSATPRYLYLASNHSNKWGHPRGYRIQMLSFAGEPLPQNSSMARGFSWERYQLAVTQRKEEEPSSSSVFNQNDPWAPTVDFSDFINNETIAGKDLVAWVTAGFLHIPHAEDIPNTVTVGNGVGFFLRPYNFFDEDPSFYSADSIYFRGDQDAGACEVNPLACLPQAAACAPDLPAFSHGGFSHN
Outline: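 Recombinant human VAP-1 in 50 mM sodium phosphate pH 7.4 preincubated 30 min at 37 °C with compound (8-point 1:3 series, <1% DMSO), then 1 mM benzylamine, 200 uM Amplex Red, 1 U/mL HRP added. H2O2-derived resorufin fluorescence (ex 544/em 590) followed 1–2 h; IC50 from four-parameter fit of rate inhibition.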

[3] = target: T4, recombinant human MAO-A (monoamine oxidase-A) (Homo sapiens, UniProt P21397); experiment: Activity evaluation on recombinant human MAO-A (Amplex Red/HRP-coupled assay, 0.5 mM tyramine substrate); settings: read-out: Inhibitory Activity (IC50, nM) MAO-A
T4 construct: purchased Sigma-Aldrich
T4 sequence (P21397 1-527): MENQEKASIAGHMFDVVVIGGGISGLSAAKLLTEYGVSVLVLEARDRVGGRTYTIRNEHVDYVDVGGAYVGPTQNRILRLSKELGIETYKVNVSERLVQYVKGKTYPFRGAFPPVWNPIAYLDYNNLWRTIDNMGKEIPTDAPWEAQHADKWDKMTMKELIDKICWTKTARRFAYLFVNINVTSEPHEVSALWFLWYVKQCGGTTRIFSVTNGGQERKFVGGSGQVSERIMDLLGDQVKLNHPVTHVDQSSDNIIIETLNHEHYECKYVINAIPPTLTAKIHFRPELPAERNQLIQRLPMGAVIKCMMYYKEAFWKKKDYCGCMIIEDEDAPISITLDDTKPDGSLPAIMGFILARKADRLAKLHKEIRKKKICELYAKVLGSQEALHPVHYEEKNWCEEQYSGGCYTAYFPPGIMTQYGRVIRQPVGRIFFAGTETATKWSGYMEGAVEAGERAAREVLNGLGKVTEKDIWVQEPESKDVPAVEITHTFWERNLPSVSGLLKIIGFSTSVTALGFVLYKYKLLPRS
Outline: as §1

[4] = recombinant human VAP-1, 30 min preincubation at 37° C., 1 mM benzylamine
[5] = recombinant human VAP-1, benzylamine substrate

Row | SMILES | IC50 ([1]; 1 mM putrescine) | IC50 ([2]; 1 mM benzylamine) | IC50 (recombinant human VAP-1; [4]) | IC50 ([3]; 0.5 mM tyramine) | IC50 ([1]; 1 mM putrescine substrate) | IC50 ([2]; 1 mM benzylamine substrate) | IC50 (recombinant human VAP-1; [5]) | IC50 ([3]; 0.5 mM tyramine substrate)
1 | NCC(Cn1ncn(-c2ccc(F)cc2)c1=O)=C(F)F [Example 1, 2-[2-(aminomethyl)-3,3-difluoro-allyl]-4-(4-fluorophenyl)-1,2,4-triazol-3-one Trifluoroacetate] | > 10000 nM | 39000 nM | 2 nM | > 100000 nM | – | – | – | –
2 | NCC(Cn1ncn(Cc2ccc(-c3cc(F)c4[nH]c(=O)ccc4c3)s2)c1=O)=C(F)F [Example 137, 6-[5-[[1-[2-(aminomethyl)-3,3-difluoro-allyl]-5-oxo-1,2,4-triazol-4-yl]methyl]-2-thienyl]-8-fluoro-1H-quinolin-2-one Trifluoroacetate] | > 100000 nM | > 100000 nM | 0.3 nM | > 100000 nM | – | – | – | –
3 | NCC(Cn1ncn(-c2cccc(-c3ccc(N4CCNCC4)nc3)n2)c1=O)=C(F)F [Example 213, 2-[2-(aminomethyl)-3,3-difluoro-allyl]-4-[6-(6-piperazin-1-yl-3-pyridyl)-2-pyridyl]-1,2,4-triazol-3-one Ditrifluoroacetate] | – | – | – | – | 1300 nM | > 100000 nM | 2.5 nM | > 100000 nM
4 | NCC(Cn1ncn(Cc2ccc(-c3ccc4c(c3)C(=O)NCC4)s2)c1=O)=C(F)F [Example 132, 7-[5-[[1-[2-(aminomethyl)-3,3-difluoro-allyl]-5-oxo-1,2,4-triazol-4-yl]methyl]-2-thienyl]-3,4-dihydro-2H-isoquinolin-1-one Trifluoroacetate] | > 100000 nM | > 100000 nM | 0.2 nM | > 100000 nM | – | – | – | –
5 | NCC(Cn1ncn(-c2cccc(-c3ccc4c(c3)OCO4)n2)c1=O)=C(F)F [Example 50, 2-[2-(aminomethyl)-3,3-difluoro-allyl]-4-[6-(1,3-benzodioxol-5-yl)-2-pyridyl]-1,2,4-triazol-3-one Trifluoroacetate] | 1200 nM | 13000 nM | 1.5 nM | > 100000 nM | – | – | – | –
6 | NCC(Cn1ncn(Cc2ccc(C#Cc3cnc4c(c3)NC(=O)CO4)s2)c1=O)=C(F)F [Example 169, 7-[2-[5-[[1-[2-(aminomethyl)-3,3-difluoro-allyl]-5-oxo-1,2,4-triazol-4-yl]methyl]-2-thienyl]ethynyl]-1H-pyrido[2,3-b][1,4]oxazin-2-one Trifluoroacetate] | > 100000 nM | > 100000 nM | 0.2 nM | > 100000 nM | – | – | – | –
7 | CCn1cc(-c2ccc(-n3cnn(CC(CN)=C(F)F)c3=O)c(F)c2)cn1 [Example 37, 2-[2-(aminomethyl)-3,3-difluoro-allyl]-4-[4-(1-ethylpyrazol-4-yl)-2-fluoro-phenyl]-1,2,4-triazol-3-one Trifluoroacetate] | 860 nM | 880 nM | 0.5 nM | > 100000 nM | – | – | – | –
8 | CC(=O)c1ccc(-c2ccc(Cn3cnn(CC(CN)=C(F)F)c3=O)s2)cc1 [Example 100, 4-[[5-(4-acetylphenyl)-2-thienyl]methyl]-2-[2-(aminomethyl)-3,3-difluoro-allyl]-1,2,4-triazol-3-one trifluoroacetate] | > 10000 nM | 11000 nM | 0.5 nM | > 100000 nM | – | – | – | –
9 | CN1C(=O)CCc2cc(-c3cccc(-n4cnn(CC(CN)=C(F)F)c4=O)n3)ccc21 [Example 52, 6-[6-[1-[2-(aminomethyl)-3,3-difluoro-allyl]-5-oxo-1,2,4-triazol-4-yl]-2-pyridyl]-1-methyl-3,4-dihydroquinolin-2-one Trifluoroacetate] | 300 nM | 23000 nM | 0.9 nM | > 100000 nM | – | – | – | –
10 | COc1ccc(-c2cnc(-n3cnn(CC(CN)=C(F)F)c3=O)c(C)c2)cn1 [Example 225, 2-[2-(aminomethyl)-3,3-difluoro-allyl]-4-[5-(6-methoxy-3-pyridyl)-3-methyl-2-pyridyl]-1,2,4-triazol-3-one Trifluoroacetate] | – | – | – | – | 14000 nM | 1600 nM | 0.5 nM | > 100000 nM
11 | CCn1cc(-c2ccc(Cn3cnn(CC(CN)=C(F)F)c3=O)cc2)cn1 [Example 264, 2-[2-(aminomethyl)-3,3-difluoro-allyl]-4-[[4-(1-ethylpyrazol-4-yl)phenyl]methyl]-1,2,4-triazol-3-one Trifluoroacetate] | – | – | – | – | > 100000 nM | > 100000 nM | 1.3 nM | > 100000 nM
12 | Cc1cc(-c2cccc(-c3cc[nH]n3)c2)cnc1-n1cnn(CC(CN)=C(F)F)c1=O [Example 232, 2-[2-(aminomethyl)-3,3-difluoro-allyl]-4-[3-methyl-5-[3-(1H-pyrazol-3-yl)phenyl]-2-pyridyl]-1,2,4-triazol-3-one Trifluoroacetate] | – | – | – | – | 15000 nM | 1100 nM | 0.5 nM | > 100000 nM
13 | CN1C(=O)CCc2cc(-c3ccc4cc(Cn5cnn(CC(CN)=C(F)F)c5=O)sc4c3)ccc21 [Example 203, 6-[2-[[1-[2-(aminomethyl)-3,3-difluoro-allyl]-5-oxo-1,2,4-triazol-4-yl]methyl]benzothiophen-6-yl]-1-methyl-3,4-dihydroquinolin-2-one Trifluoroacetate] | – | – | – | – | 4000 nM | 780 nM | 1.5 nM | > 100000 nM
